What all share (format): in vivo, rat
Assay [1] can be described thus: Plasma testosterone levels in male rats of varying hormonal status. Particulars: 0.5 mg/day; for Plasma testosterone levels: osmotic pump, 14 days, n = 5. The text has this: (§1) Compound VI and Compound VII were synthesized and characterized in the laboratory of Dr. Duane Miller at the University of Tennessee, Memphis, Tenn. Male Sprague-Dawley rats were purchased from Harlan Biosciences (Indianapolis, Ind.). The animals were maintained on a 12-h cycle of light and dark with food and water available ad libitum. All animal studies were reviewed and approved by the Animal Care and Use Committee of The Ohio State University, and conformed to the Principles of Laboratory Animal Care (NIH publication #85-23, revised 1985). Immature male Sprague-Dawley rats weighing 187 to 214 g were randomly distributed into 9 groups of 5 animals. One day before the initiation of drug treatment, groups 4 through 6 and groups 7 through 9 received unilateral or bilateral orchidectomy, respectively, via a midline scrotal incision. […] All drugs given to animals were freshly prepared as solutions in polyethylene glycol 300 (PEG 300). Groups 4 and 7 received treatment with vehicle alone (i.e., PEG 300). Animals in groups 3, 6, and 9 received testosterone propionate (TP, 0.5 mg/day) via implantation of subdermal osmotic pumps (Model 2002, Durect Corporation, Palo Alto, Calif.). Animals in groups 2, 5, and 8 received Compound VI or Compound VII (0.5 mg/day) via implantation of subdermal osmotic pumps. After 14 days of drug treatment, rats were weighed, anesthetized, and sacrificed. Blood samples were collected by venipuncture of the abdominal aorta. Plasma samples were analyzed for testosterone, FSH, LH and osteocalcin. Testosterone concentrations were measured by AniLytics Inc. (Gaithersburg, Md.). FSH and LH levels were measured by the National Hormone and Peptide Program (Dr. A F Parlow, UCLA, CA). Plasma osteocalcin levels were determined using a commercially available rat osteocalcin EIA kit from Biomedical Technologies Inc. (Stoughton, Mass.). The ventral prostates, seminal vesicles, and levator ani muscle were removed and weighed. Osmotic pumps were also removed from animals to check for correct pump operation. The weights of all organs were normalized to body weight, and analyzed for any statistically significant differences between groups using single-factor ANOVA with the alpha value set a priori at p<0.05. The weights of prostates and seminal vesicles were used as indices for evaluation of androgenic activity, and the levator ani muscle weight was used to evaluate the anabolic activity. Statistical analyses of parameters from complete blood count or serum chemical profiling, wherever applicable, were performed by single-factor ANOVA with the alpha value set a priori at p<0.05.

Assay [2] can be described thus: Plasma LH levels in male rats of varying hormonal status. Particulars: 0.5 mg/day; for Plasma LH levels: 14 days, n = 5.
Excerpt: as §1

For assay [3], the system named is female rats after ovariectomy. Put plainly: Bone biomechanical strength, cortical thickness, trabecular density and muscle mass in ovariectomized and intact female rats. As for the experimental part:
One hundred ten female rats were assigned to one of eleven treatment groups. Groups 1-8 were ovariectomized on day one of the study. Groups 9-11 were intact animals. Groups 1-6 received Compound VI by daily subcutaneous injection at doses of 0.1, 0.3, 0.5, 0.75, 1.0, and 3 mg/day, respectively. Groups 7 and 11 received dihydrotestosterone (DHT) at a dose of 1 mg/day. Groups 8 and 9 were ovariectomized and intact control groups, respectively. Group 10 received Compound VI at a dose of 1.0 mg/day. All animals were treated for 120 days. Bone mineral content (BMC) was determined using dual energy x-ray absorptiometry (DEXA) on days 1, 30, 60, 90, and 120.

These results are taken from patent US20050080054A1, “Treating androgen decline in aging male (ADAM)-associated conditions with SARMS” (priority 2002, published 2005).

With `CC(=O)Nc1ccc(OC[C@](C)(O)C(=O)Nc2ccc([N+](=O)[O-])c(C(F)(F)F)c2)cc1` [Compound VI], the Plasma testosterone levels in assay [1] (castrated male rats) was found to be 0.066 ± 0.148 ng/mL; in assay [1] (hemi-orchidectomized male rats), 1.404 ± 0.810 ng/mL; in assay [1] (intact male rats), 1.830 ± 0.510 ng/mL. Moreover, the “effect on testosterone levels” value in assay [1] (intact, hemi-orchidectomized or castrated male rats) is given as “did not affect testosterone levels”. Besides, the “effect on plasma LH levels” value in assay [2] (TP statement for castrated male rats) is recorded as “no effect”. In addition, the “Plasma LH levels” value in assay [2] (castrated male rats) is 8.644 ± 2.799 ng/mL; in assay [2] (hemi-orchidectomized male rats), 0.124 ± 0.115 ng/mL; in assay [2] (intact male rats), 0.026 ± 0.037 ng/mL. The “biomechanical strength of the L5 vertebra and femur” value in assay [3] (FIG. 11) is “increased biomechanical strength”. For the same compound, in assay [3] (FIG. 12), the “cortical thickness in the femoral mid-shaft” value is reported as “increased cortical thickness”. Moreover, the “trabecular bone loss in the distal femur” value in assay [3] (OVX animals) is “only partially prevented trabecular bone loss”. Further, the “muscle mass” value in assay [3] (gonadectomized and intact animals) is recorded as “increased muscle mass”. For the same compound, the “trabecular density of the distal femur” value in assay [3] (intact animals) is “proliferative effect”.
